Reference: publication PMC5841296, “Inhibition of the Hexosamine Biosynthetic Pathway by targeting PGM3 causes breast cancer growth arrest and apoptosis” (Cell Death & Disease, 2018)

What was measured:
[1] = biological target: T1, PGM3 (N-Acetylglucosamine-phosphate Mutase) (Homo sapiens, UniProt O95394); test: CETSA, Western blot (cell extract); conditions: 30 min RT incubation of extract, heated 3 min at 49-70 °C or isothermal at 58 °C; prodrug tested, possible conversion to FR051 in lysate not excluded
T1 sequence (O95394 1-542): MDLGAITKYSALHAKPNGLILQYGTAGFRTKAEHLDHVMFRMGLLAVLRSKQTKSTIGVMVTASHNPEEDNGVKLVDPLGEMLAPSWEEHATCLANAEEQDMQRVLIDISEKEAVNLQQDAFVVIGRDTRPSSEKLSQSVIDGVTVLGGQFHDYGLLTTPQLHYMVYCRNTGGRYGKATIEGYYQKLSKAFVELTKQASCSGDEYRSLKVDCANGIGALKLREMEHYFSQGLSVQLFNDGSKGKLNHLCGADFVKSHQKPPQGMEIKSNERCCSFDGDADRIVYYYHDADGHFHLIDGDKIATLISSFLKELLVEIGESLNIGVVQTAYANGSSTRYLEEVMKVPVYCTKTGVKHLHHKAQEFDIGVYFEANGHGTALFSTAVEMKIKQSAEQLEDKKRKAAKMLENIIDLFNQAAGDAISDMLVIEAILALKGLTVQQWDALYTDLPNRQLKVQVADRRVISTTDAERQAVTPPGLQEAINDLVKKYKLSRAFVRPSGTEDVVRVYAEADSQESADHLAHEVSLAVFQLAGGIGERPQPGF

[2] = biological target: T1, PGM3 (N-Acetylglucosamine-phosphate Mutase); test: ITDRF-CETSA, Western blot (cell extract); format: biochemical; set-up: endogenous full-length protein in MDA-MB-231 soluble extract (freeze-thaw), detected by Western blot; conditions: 30 min RT incubation of extract, heated 3 min at 58 °C; natural substrate

Compound: CC(=O)OC[C@H]1O[C@@H]2OC(C)=N[C@@H]2[C@@H](OC(C)=O)[C@@H]1OC(C)=O [FR054, 2-methyl-(3,4,6-tri-O-acetyl-1,2-dideoxy-α-D-glucopyrano)-[2,1-d]-2-oxazoline]
- CETSA [1]: FR054 markedly increased the accumulation of PGM3 in the soluble fraction

Compound: CC(=O)N[C@H]1C(O)O[C@H](COP(=O)(O)O)[C@@H](O)[C@@H]1O (some centres unmarked) [GlcNAc-6-P]
- ITDRF CETSA [2]: more potent binding than the natural substrate GlcNAc-6-P
